Experimental data from patent US10106625B2, “Pharmaceutical compositions with enhanced performance and improved processability” (HERCULES INCORPORATED, priority 2013, dated 2018).
Read-outs that look alike come from different tables or passages of the source. Each block holds one compound with its values, some of them ahead of it.

Experiments:
[1] = cited from earlier work
[2] = Kinetic solubility of spray dried dispersion with Ezetimibe in FaSSIF; assay type: physicochemical
Protocol: Hg reduced pressure for 24 hours.

[3] = 120 min
Protocol: Dissolution was performed using a pDISS Profiler™ (available from Pion Inc., MA, USA). Each spray-dried powder was weighed so that the volume adjusted equivalent of the typical daily dose of the drug was added to each vial and compensation was made for the drug load of the samples. For example, the target API was 9.5 mg for Felpdipine in 20 ml of FaSSIF. The spray dried sample containing 9.5 mg API of Felpdipine was weighed. For Ezetimibe, the spray dried sample containing 10 mg API was weighed. The weighed spray dried samples were added to 20 ml of FaSSIF in vials and then heated to 37° C. The vials were maintained at a constant stirring speed of 300 RPM. Dissolution measurements were taken by in situ fiber optic probes at various time points and these measurements were analyzed at the appropriate wavelength for dissolved API concentration. Based on the in situ measurement data, various solubility parameters were calculated.

Compound: CCOC(=O)N1c2ccc(C(F)(F)F)cc2[C@@H](N(Cc2cc(C(F)(F)F)cc(C(F)(F)F)c2)C(=O)OC)C[C@H]1CC [torcetrapib]
aqueous solubility [1]: less than 0.04 μg/ml

C120 ([2]; Ezetimibe SDD, 60% drug load, API concentration at 120 minutes): 14 µg/mL
AUC120 ([2]; Ezetimibe SDD, 60% drug load, FaSSIF 37° C., API concentration over first 120 minutes): 1,626 μg * min/mL
AUC(Rel) ([2]; Ezetimibe, ratio of AUC120 of polymer/drug dispersion versus API alone): 1.0
Compound: O=C1[C@H](CC[C@H](O)c2ccc(F)cc2)[C@@H](c2ccc(O)cc2)N1c1ccc(F)cc1 [Ezetimibe API, Ezetimibe]

C120 [3]: 28 µg/mL
Compound: CCOC(=O)C1=C(C)NC(C)=C(C(=O)OC)C1c1cccc(Cl)c1Cl (centres unmarked) [Felodipine API, Felodipine]
